In ChEMBL document CHEMBL1201862, “PubChem BioAssay data set” (2004):
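Following 48 hours of exposure in 96-well plates, responses at five concentrations were used to interpolate endpoints linearly. Here, GI50 denotes the concentration required for 50% inhibition of growth.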 Active and inactive are the calls of the source. Rule as the data show it: active = GI50 up to about 1.1 µM and inactive = higher.

Tests used:
Experiment in all cases: NCI tumour cell line growth inhibition, 48 h
MDA-N = test system: MDA-N
EKVX = test system: EKVX
MDA-MB-231 = test system: MDA-MB-231
RPMI-8226 = test system: RPMI-8226
MDA-MB-435 = test system: MDA-MB-435
HL-60 = test system: HL-60
KM12 = test system: KM12
HOP-62 = test system: HOP-62
OVCAR-8 = test system: OVCAR-8
M14 = test system: M14
T47D = test system: T47D
HCT-116 = test system: HCT-116
SK-MEL-28 = test system: SK-MEL-28
IGROV-1 = test system: IGROV-1
SW-620 = test system: SW-620
SK-MEL-2 = test system: SK-MEL-2
ACHN = test system: ACHN
NCI-H23 = test system: NCI-H23
SF-268 = test system: SF-268
HT-29 = test system: HT-29

Compound | GI50 (MDA-N) | GI50 (EKVX) | GI50 (MDA-MB-231) | GI50 (RPMI-8226) | GI50 (MDA-MB-435) | GI50 (HL-60) | GI50 (KM12) | GI50 (HOP-62) | GI50 (OVCAR-8) | GI50 (M14) | GI50 (T47D) | GI50 (HCT-116) | GI50 (SK-MEL-28) | GI50 (IGROV-1) | GI50 (SW-620) | GI50 (SK-MEL-2) | GI50 (ACHN) | GI50 (NCI-H23) | GI50 (SF-268) | GI50 (HT-29)
CCC1OC(=O)CC(O)C(C)C(OC2OC(C)CC(N(C)C)C2O)C(CC=O)CC(C)C(=O)/C=C/C2(C)OC2C1C (stereo not drawn) | 25.8 µM (inactive) | 15.6 µM (inactive) | 28.3 µM (inactive) | 27 µM (inactive) | 16.8 µM (inactive) | 12.8 µM (inactive) | 14.4 µM (inactive) | 25.2 µM (inactive) | 22.4 µM (inactive) | 31 µM (inactive) | 19.9 µM (inactive) | 15.8 µM (inactive) | 21.4 µM (inactive) | 10.3 µM (inactive) | 17 µM (inactive) | 45.2 µM (inactive) | 19.6 µM (inactive) | 19 µM (inactive) | 27.2 µM (inactive) | 17.9 µM (inactive)
CC1(C)OC(CP(c2ccccc2)c2ccccc2)C(CP(c2ccccc2)c2ccccc2)O1 (stereo not drawn) | 1.52 µM (inactive) | 0.914 µM (active) | 1.22 µM (inactive) | 1.17 µM (inactive) | 2.16 µM (inactive) | 0.0443 µM (active) | 0.617 µM (active) | 0.418 µM (active) | 0.741 µM (active) | 1.79 µM (inactive) | 0.345 µM (active) | 0.165 µM (active) | > 28.2 µM (inactive) | 0.222 µM (active) | 1.17 µM (inactive) | 1.81 µM (inactive) | 2.12 µM (inactive) | 0.485 µM (active) | 3.81 µM (inactive) | 0.656 µM (active)
O=C(O)CCCc1ccc2c(c1)CC1(C2)Cc2cc3c(cc2C1)CCCC3 | 19.1 µM (inactive) | > 100 µM (inactive) | 3.24 µM (inactive) | 28 µM (inactive) | 17.3 µM (inactive) | 11.6 µM (inactive) | 19 µM (inactive) | 1.98 µM (inactive) | 16.5 µM (inactive) | 15.2 µM (inactive) | 35.6 µM (inactive) | 2.56 µM (inactive) | – | 20 µM (inactive) | – | 17.5 µM (inactive) | 17 µM (inactive) | 23.6 µM (inactive) | – | 16.3 µM (inactive)
C/C(=N\O)c1ccc(OCc2cc(C(F)(F)F)cc(C(F)(F)F)c2)cc1 | 37.2 µM (inactive) | 78.5 µM (inactive) | > 100 µM (inactive) | – | 43.8 µM (inactive) | 4.13 µM (inactive) | 19.3 µM (inactive) | 50.1 µM (inactive) | 41.9 µM (inactive) | 41 µM (inactive) | 75.3 µM (inactive) | 31.3 µM (inactive) | 61.9 µM (inactive) | 75 µM (inactive) | 32 µM (inactive) | 57.1 µM (inactive) | 25.5 µM (inactive) | 95.3 µM (inactive) | 43.2 µM (inactive) | 20.1 µM (inactive)
COc1ccc(CN(Cc2ccc(OC)cc2)C(=O)CC2(O)C=CCC2)cc1 (stereo not drawn) | 72.9 µM (inactive) | 46.1 µM (inactive) | > 100 µM (inactive) | 31.6 µM (inactive) | 71.4 µM (inactive) | 34.8 µM (inactive) | 45.9 µM (inactive) | > 100 µM (inactive) | 37.5 µM (inactive) | > 100 µM (inactive) | 39.4 µM (inactive) | 55.3 µM (inactive) | > 100 µM (inactive) | > 100 µM (inactive) | > 100 µM (inactive) | 56.6 µM (inactive) | > 100 µM (inactive) | > 100 µM (inactive) | – | 66.7 µM (inactive)
Cc1csc(CP(=O)(OC(C)C)OC(C)C)n1 | > 100 µM (inactive) | > 100 µM (inactive) | > 100 µM (inactive) | > 100 µM (inactive) | > 100 µM (inactive) | > 100 µM (inactive) | – | > 100 µM (inactive) | > 100 µM (inactive) | > 100 µM (inactive) | > 100 µM (inactive) | > 100 µM (inactive) | > 100 µM (inactive) | > 100 µM (inactive) | > 100 µM (inactive) | > 100 µM (inactive) | > 100 µM (inactive) | > 100 µM (inactive) | > 100 µM (inactive) | > 100 µM (inactive)
CC(=O)[C@@H](C)C(=O)N1C(=O)OC[C@@]12[C@@H]1CC[C@@H](C1)C2(C)C | > 100 µM (inactive) | > 100 µM (inactive) | > 100 µM (inactive) | > 100 µM (inactive) | > 100 µM (inactive) | > 100 µM (inactive) | > 100 µM (inactive) | > 100 µM (inactive) | > 100 µM (inactive) | > 100 µM (inactive) | > 100 µM (inactive) | > 100 µM (inactive) | > 100 µM (inactive) | > 100 µM (inactive) | > 100 µM (inactive) | > 100 µM (inactive) | > 100 µM (inactive) | > 100 µM (inactive) | – | > 100 µM (inactive)
Cc1c2ccccc2c(C2C3C(=O)N(c4cccc5ccccc45)C(=O)C3ON2Cc2ccc(CC(N)=O)cc2)c2ccccc12 (stereo not drawn) | 11.5 µM (inactive) | 14.2 µM (inactive) | 23.3 µM (inactive) | – | 17.9 µM (inactive) | 16.1 µM (inactive) | 18.2 µM (inactive) | 23 µM (inactive) | 22.4 µM (inactive) | 15 µM (inactive) | 15 µM (inactive) | 18.2 µM (inactive) | > 50 µM (inactive) | 17.7 µM (inactive) | 20.3 µM (inactive) | 10.8 µM (inactive) | 18.5 µM (inactive) | 25.1 µM (inactive) | 23.6 µM (inactive) | 10.2 µM (inactive)
O=C(CP(c1ccccc1)c1ccccc1)c1cccc(C(=O)CP(c2ccccc2)c2ccccc2)c1 | 70.3 µM (inactive) | 56.9 µM (inactive) | 68.9 µM (inactive) | 12.6 µM (inactive) | 45.7 µM (inactive) | 16.2 µM (inactive) | 26.1 µM (inactive) | 96.6 µM (inactive) | 89.7 µM (inactive) | 52.6 µM (inactive) | 14.2 µM (inactive) | 36.8 µM (inactive) | 92 µM (inactive) | > 100 µM (inactive) | > 100 µM (inactive) | > 100 µM (inactive) | 84.1 µM (inactive) | – | 80.9 µM (inactive) | 8.2 µM (inactive)
Cc1c(O)c(OC2OC(CO)C(O)C(O)C2O)cc2c1CC[C@@H]1C2(C)C(=O)C[C@]2(C)[C@@H]([C@@](C)(O)C(O)CCC(C)(C)O)[C@H](O)C[C@@]12C (stereo partly drawn) | > 100 µM (inactive) | > 100 µM (inactive) | > 100 µM (inactive) | – | > 100 µM (inactive) | > 100 µM (inactive) | > 100 µM (inactive) | > 100 µM (inactive) | > 100 µM (inactive) | > 100 µM (inactive) | > 100 µM (inactive) | > 100 µM (inactive) | > 100 µM (inactive) | > 100 µM (inactive) | > 100 µM (inactive) | > 100 µM (inactive) | > 100 µM (inactive) | > 100 µM (inactive) | > 100 µM (inactive) | > 100 µM (inactive)
C=CC[C@]12C=C(OC)[C@@H](O)[C@](OC)(C(c3cc(OC)c4c(c3)OCO4)[C@H]1C)[C@H]2OC(C)=O (stereo partly drawn) | > 100 µM (inactive) | > 100 µM (inactive) | > 100 µM (inactive) | > 100 µM (inactive) | 94.6 µM (inactive) | 91 µM (inactive) | > 100 µM (inactive) | > 100 µM (inactive) | > 100 µM (inactive) | > 100 µM (inactive) | > 100 µM (inactive) | > 100 µM (inactive) | > 100 µM (inactive) | > 100 µM (inactive) | > 100 µM (inactive) | > 100 µM (inactive) | > 100 µM (inactive) | > 100 µM (inactive) | 8.34 µM (inactive) | > 100 µM (inactive)
Cc1cc(=O)oc2c(CN3CCCCC3)c(O)ccc12 | > 100 µM (inactive) | > 100 µM (inactive) | > 100 µM (inactive) | > 100 µM (inactive) | > 100 µM (inactive) | > 100 µM (inactive) | – | > 100 µM (inactive) | > 100 µM (inactive) | > 100 µM (inactive) | > 100 µM (inactive) | > 100 µM (inactive) | > 100 µM (inactive) | > 100 µM (inactive) | > 100 µM (inactive) | > 100 µM (inactive) | > 100 µM (inactive) | > 100 µM (inactive) | > 100 µM (inactive) | > 100 µM (inactive)
COc1cccc(-c2cc(=O)c3ccc(C)nc3[nH]2)c1 | 0.0115 µM (active) | 1.96 µM (inactive) | 0.245 µM (active) | 0.034 µM (active) | < 0.01 µM (active) | 0.0212 µM (active) | 0.0366 µM (active) | 0.0904 µM (active) | 0.0847 µM (active) | 0.0454 µM (active) | 57.9 µM (inactive) | 0.0448 µM (active) | – | 0.0461 µM (active) | 0.0383 µM (active) | 0.0541 µM (active) | 0.0538 µM (active) | 0.214 µM (active) | 0.0671 µM (active) | 0.0331 µM (active)
COc1cc2c(cc1C[N+](C)(C)CSc1ccccc1)-c1ccccc1CC2 | 1.77 µM (inactive) | 10.6 µM (inactive) | 2.86 µM (inactive) | 1.57 µM (inactive) | 3.18 µM (inactive) | 0.721 µM (active) | 2.2 µM (inactive) | 11.4 µM (inactive) | 3.9 µM (inactive) | 2.07 µM (inactive) | 2.91 µM (inactive) | 2.24 µM (inactive) | 4.31 µM (inactive) | 2.47 µM (inactive) | 10.4 µM (inactive) | 2 µM (inactive) | 15.3 µM (inactive) | 3.76 µM (inactive) | 5.32 µM (inactive) | 2.25 µM (inactive)
